Test results taken from PubChem BioAssay AID248 (DTP/NCI, 2004).
Where “and” joins values, the source holds several entries; their conditions need not be identical. Equal entries are not always repeated. Inconclusive results and toxic doses are left out. No stated cut-off is given here; in the data, active means T/C of 150% or more; inactive means T/C below 125%.

Test system: L1210 leukemia ip in BDF1 mice, survival T/C
Assay: NCI In Vivo Anticancer Drug Screen. Data for tumor model L1210 Leukemia (intraperitoneal) in B6D2F1 (BDF1) mice
Conditions: endpoint: mean survival time, higher = longer survival
Outline: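 Read-out is survival time, reported as the treated-group measurement over the vehicle-control measurement.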

[1] = dose: 100.0 mg/kg/injection, schedule: Q04DX003 (ip), vehicle: Klucel (hydroxypropylcellulose) (HPC)
[2] = dose: 100.0 mg/kg/injection, schedule: Q01DX009 (ip), vehicle: Klucel (hydroxypropylcellulose) (HPC)
[3] = dose: 200.0 mg/kg/injection, schedule: Q01DX009 (ip), vehicle: Klucel (hydroxypropylcellulose) (HPC)
[4] = dose: 200.0 mg/kg/injection, schedule: Q04DX003 (ip), vehicle: Klucel (hydroxypropylcellulose) (HPC)
[5] = dose: 400.0 mg/kg/injection, schedule: Q01DX009 (ip), vehicle: Klucel (hydroxypropylcellulose) (HPC)
[6] = dose: 400.0 mg/kg/injection, schedule: Q04DX003 (ip), vehicle: Klucel (hydroxypropylcellulose) (HPC)

Measured: T/C

CN(C(=O)c1c(Cl)[nH]c2ccccc12)c1ccccc1
inactive: dose: 25.0 mg/kg/injection, schedule: Q04DX003 (ip), vehicle: Klucel (hydroxypropylcellulose) (HPC) 96 % of control | dose: 50.0 mg/kg/injection, schedule: Q04DX003 (ip), vehicle: Klucel (hydroxypropylcellulose) (HPC) 95 % of control | [1] 90 % of control

COc1ccccc1C(c1ccccc1OC)N(C)C(C)(C)CO
inactive: dose: 6.25 mg/kg/injection, schedule: Q01DX009 (ip), vehicle: saline sonified 102 % of control | dose: 12.5 mg/kg/injection, schedule: Q01DX009 (ip), vehicle: saline sonified 101 % of control | dose: 25.0 mg/kg/injection, schedule: Q01DX009 (ip), vehicle: saline sonified 106 % of control

CC(C)(C)C1(O)CCCCC1
inactive: [2] 99 % of control | [1] 98 % of control | [3] 92 % of control | [4] 100 % of control | [5] 92 % of control | [6] 98 % of control

CC[CH](C)[Hg][c]1cccc2ccccc12 (stereo unspecified)
inactive: dose: 25.0 mg/kg/injection, schedule: Q01DX009 (ip), vehicle: Klucel (hydroxypropylcellulose) (HPC) 96 % of control | dose: 50.0 mg/kg/injection, schedule: Q01DX009 (ip), vehicle: Klucel (hydroxypropylcellulose) (HPC) 97 % of control | [2] 97 % of control and 100 % of control | [1] 100 % of control | [4] 97 % of control | [6] 96 % of control

ClC1OC(Cl)(Cl)C(Cl)(Cl)OC1(Cl)Cl (stereo unspecified)
inactive: [2] 103 % of control | [1] 107 % of control | [3] 93 % of control | [4] 94 % of control | [5] 101 % of control | [6] 96 % of control

COc1cc2c(cc1NC(=O)C(F)(F)F)-c1ccc(NC(=O)C(F)(F)F)cc1C2
inactive: dose: 75.0 mg/kg/injection, schedule: Q01DX001 (ip), vehicle: carboxymethylcellulose (CMC) 88 % of control | dose: 150.0 mg/kg/injection, schedule: Q01DX001 (ip), vehicle: carboxymethylcellulose (CMC) 98 % of control | dose: 300.0 mg/kg/injection, schedule: Q01DX001 (ip), vehicle: carboxymethylcellulose (CMC) 90 % of control

CCOC(=O)C1=NN(c2ccccc2)C(=O)C1
inactive: [2] 105 % of control | [1] 98 % of control | dose: 100.0 mg/kg/injection, schedule: Q04DX003 (ip), vehicle: saline with Tween-80 94 % of control | [3] 103 % of control | [4] 96 % of control | dose: 200.0 mg/kg/injection, schedule: Q04DX003 (ip), vehicle: saline with Tween-80 100 % of control | [5] 92 % of control | [6] 102 % of control | dose: 400.0 mg/kg/injection, schedule: Q04DX003 (ip), vehicle: saline with Tween-80 93 % of control

CCCCS(=O)CC(O)(c1ccccc1)c1ccccc1 (stereo unspecified)
inactive: dose: 100.0 mg/kg/injection, schedule: Q03DX002 (ip), vehicle: saline with Tween-80 102 % of control | dose: 200.0 mg/kg/injection, schedule: Q03DX002 (ip), vehicle: saline with Tween-80 105 % of control

O=C(CC1=CCCCC1)c1ccccc1
inactive: [2] 103 % of control | [3] 100 % of control | [5] 97 % of control

COc1cc(O)c([N+](=O)[O-])cc1[N+](=O)[O-]
inactive: dose: 100.0 mg/kg/injection, schedule: Q01DX001 (ip), vehicle: carboxymethylcellulose (CMC) 96 % of control | dose: 200.0 mg/kg/injection, schedule: Q01DX001 (ip), vehicle: carboxymethylcellulose (CMC) 91 % of control | dose: 400.0 mg/kg/injection, schedule: Q01DX001 (ip), vehicle: carboxymethylcellulose (CMC) 100 % of control

CC(C)(C)C(O)C1CCCS1(=O)=O (stereo unspecified)
inactive: dose: 50.0 mg/kg/injection, schedule: Q01DX001 (ip), vehicle: Klucel (hydroxypropylcellulose) (HPC) 96 % of control

CCOC(=O)c1nc[nH]c1N=[N+]=[N-]
inactive: dose: 100.0 mg/kg/injection, schedule: Q01DX001 (ip), vehicle: other 106 % of control | dose: 200.0 mg/kg/injection, schedule: Q01DX001 (ip), vehicle: other 97 % of control | dose: 400.0 mg/kg/injection, schedule: Q01DX001 (ip), vehicle: other 95 % of control

Cc1c(CCNC=O)cc(C)c2c3c(oc12)CCCC3
inactive: dose: 50.0 mg/kg/injection, schedule: Q01DX001 (ip), vehicle: saline 101 % of control | dose: 100.0 mg/kg/injection, schedule: Q01DX001 (ip), vehicle: saline 104 % of control | dose: 200.0 mg/kg/injection, schedule: Q01DX001 (ip), vehicle: saline 104 % of control
